Experimental findings from patent US20240262795A1, “PYRAZINE COMPOUNDS AS INHIBITORS OF FLT3” (Biomea Fusion, Inc., priority 2021, published 2024) are described below.

In general, IC50 refers to the point on the concentration scale where inhibition reaches its midpoint.

The test system of experiment [1] is MOLM-13. Description: Proliferation inhibition, CellTiter-Glo, MOLM-13. The format is cell-based, human. Conditions: Homo sapiens, 96 h; MOLM-13 cells, IC50 (4 days), CellTiter-Glo; read-out: MOLM-13 IC50. A digest of the protocol: (§1)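 About 10,000 cells per well in RPMI-1640 with 10% FBS. Compounds added 2 h after seeding at eight concentrations in duplicate (0.2% DMSO as 100% proliferation), then incubated ~96 h at 37° C, 5% CO2. ATP measured by CellTiter-Glo luminescence; IC50 from four-parameter logistic fit.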
(ATP-based viability assays read luminescence as a measure of living cells.)

Experiment [2] relates to K-562. Description: Proliferation inhibition, CellTiter-Glo, K-562. Conditions: Homo sapiens, K562, 96 h; K-562 cells, IC50 (4 days), CellTiter-Glo; read-out: K-562 IC50. It is filed as cell-based, human. A digest of the protocol: as §1
Experiment [3] relates to MV-4-11. Description: Proliferation inhibition, CellTiter-Glo, MV-4-11. The format is cell-based, human. The following applies: Homo sapiens, MV4-11, 96 h; MV-4:11 cells, IC50 (4 days), CellTiter-Glo; read-out: MV-4:11 IC50. In a few lines: as §1
Experiment [4] concerns the target T1, WT FLT3 (Homo sapiens, UniProt P36888).
T1 construct: purchased Invitrogen PR4666C
T1 sequence (P36888 564-993 limits assumed): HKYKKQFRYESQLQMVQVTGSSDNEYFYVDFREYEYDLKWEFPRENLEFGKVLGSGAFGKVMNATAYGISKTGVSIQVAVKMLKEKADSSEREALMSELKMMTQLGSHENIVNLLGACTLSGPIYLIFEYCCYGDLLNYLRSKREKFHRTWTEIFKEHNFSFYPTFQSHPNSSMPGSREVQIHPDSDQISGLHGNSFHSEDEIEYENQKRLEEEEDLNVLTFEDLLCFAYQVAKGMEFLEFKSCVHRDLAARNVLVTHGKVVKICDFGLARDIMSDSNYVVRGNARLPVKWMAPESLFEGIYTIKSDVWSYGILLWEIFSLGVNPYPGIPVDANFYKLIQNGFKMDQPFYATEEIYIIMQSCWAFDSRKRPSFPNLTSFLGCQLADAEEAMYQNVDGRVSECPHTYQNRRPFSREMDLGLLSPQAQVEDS
Description: WT FLT3 Lance Ultra TR-FRET kinase assay. It is filed as biochemical. A digest of the protocol: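 Lance Ultra TR-FRET with 50 nM ULight-JAK-1 (Tyr1023) peptide, Eu-anti-phosphotyrosine (PT66) detection, in HEPES pH 7.5 buffer at 23° C, 30 min enzyme/compound preincubation. WT: 0.5 nM enzyme, 100 μM ATP, 30 min; ITD: 0.0625 nM, 50 μM ATP, 60 min. IC50 by four-parameter fit of 11-point 3× dilutions.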
A general note: TR-FRET usually uses a lanthanide donor and a delayed reading to cut background.

Take `CCc1nc(C(N)=O)c(Nc2ccc(N3CCC(N4CCN(C)CC4)CC3)c(OC)c2)nc1NC1CCOCC1` [Gilteritinib, gilteritinib, reference compound]: the values for the IC50 in experiment [1], in experiment [2] and in experiment [3] were 1 to 10 nM, 100 to 500 nM and 1 to 10 nM, respectively.

As for `CCc1nc(C(N)=O)c(Nc2cccc(CCNC(=O)CN(C)C(=O)/C=C/CN3CCC3)c2)nc1N(C)CC` [Compound 516A, (E)-3-((3-(2-(2-(4-(azetidin-1-yl)-N-methylbut-2-enamido)acetamido)ethyl)phenyl)amino)-6-ethyl-5-(ethyl(methyl)amino) pyrazine-2-carboxamide], the half-inhibitory concentration (IC50) in experiment [4] was 0.501 to 1 nM; in experiment [1], below 1 nM; in experiment [2] it was above 500 nM; in experiment [3], below 1 nM.

For `CCc1nc(C(N)=O)c(Nc2ccnc(CCNC(=O)[C@H](C)N(C)C(=O)/C=C/CN(C)C)c2)nc1C1CC1` [Compound 310, (S,E)-5-cyclopropyl-3-((2-(2-(2-(4-(dimethylamino)-N-methylbut-2-enamido)propanamido)ethyl)pyridin-4-yl)amino)-6-ethylpyrazine-2-carboxamide], the IC50 in experiment [4] is 0.501 to 1 nM; in experiment [1], 1 to 10 nM; in experiment [2] it was above 500 nM; in experiment [3], below 1 nM.

As to `Cc1nc(C(N)=O)c(Nc2cccc(CCNC(=O)[C@H](C)N(C)C(=O)/C=C/CN(C)C)c2)nc1N(C)C(C)C` [Compound 232, (S, E)-3-((3-(2-(2-(4-(dimethylamino)-N-methylbut-2-enamido)propanamido)ethyl)phenyl)amino)-5-(isopropyl (methyl)amino)-6-methylpyrazine-2-carboxamide], the IC50 was 0.501 to 1 nM in experiment [4], 1 to 10 nM in experiment [1], above 500 nM in experiment [2] and below 1 nM in experiment [3].

`CCc1nc(Nc2cccc([C@@H](C)CNC(=O)CN(C)C(=O)/C=C/CN3CCC3)c2)c(C(N)=O)nc1CC` [Compound 508, (R, E)-3-((3-(1-(2-(4-(azetidin-1-yl)-N-methylbut-2-enamido)acetamido)propan-2-yl)phenyl)amino)-5,6-diethylpyrazine-2-carboxamide]: the IC50 is 0.501 to 1 nM in experiment [4], above 500 nM in experiment [1], above 500 nM in experiment [2] and above 500 nM in experiment [3].

Turning to `CCc1nc(C(N)=O)c(Nc2cccc(CCNC(=O)[C@H](C)N(C)C(=O)/C=C/CNC)c2)nc1N(C)C(C)C` [Compound 307, (S,E)-6-ethyl-5-(isopropyl(methyl)amino)-3-((3-(2-(2-(N-methyl-4-(methylamino)but-2-enamido)propanamido)ethyl)phenyl)amino)pyrazine-2-carboxamide], the IC50 in experiment [4] is 0.201 to 0.5 nM; in experiment [1], below 1 nM; in experiment [3], below 1 nM.

Turning to `CCc1nc(C(N)=O)c(Nc2cccc([C@@H](C)CNC(=O)CN(C)C(=O)/C=C/CN3CCC3)c2)nc1C1CC1` [Compound 506, (R,E)-3-((3-(1-(2-(4-(azetidin-1-yl)-N-methylbut-2-enamido)acetamido)propan-2-yl)phenyl)amino)-5-cyclopropyl-6-ethylpyrazine-2-carboxamide], the half-maximal inhibitory concentration (IC50) was 0.101 to 0.2 nM in experiment [4], below 1 nM in experiment [1], above 500 nM in experiment [2] and 1 to 10 nM in experiment [3].

As to `CCc1nc(C(N)=O)c(Nc2cccc(CCNC(=O)CN(C)C(=O)/C=C/CN3CCC3)c2)nc1OC(C)C` [Compound 603, (E)-3-((3-(2-(2-(4-(azetidin-1-yl)-N-methylbut-2-enamido)acetamido)ethyl)phenyl)amino)-6-ethyl-5-isopropoxypyrazine-2-carboxamide], the half-inhibitory concentration (IC50) in experiment [4] is 0.201 to 0.5 nM; in experiment [1] it was 1 to 10 nM; in experiment [2], above 500 nM; in experiment [3], below 1 nM.

With `CCOc1nc(Nc2cccc(CCNC(=O)CN(C)C(=O)/C=C/CN3CCC3)c2)c(C(N)=O)nc1CC` [Compound 602, (E)-3-((3-(2-(2-(4-(azetidin-1-yl)-N-methylbut-2-enamido)acetamido)ethyl)phenyl)amino)-5-ethoxy-6-ethylpyrazine-2-carboxamide], the IC50 in experiment [4] is 0.201 to 0.5 nM; in experiment [1] it was 1 to 10 nM; in experiment [2], above 500 nM; in experiment [3] it was below 1 nM.

Turning to `CCc1nc(C(N)=O)c(Nc2cccc(CCNC(=O)CN(C)C(=O)/C=C/CN(C)C)c2)nc1C1CC1` [Compound 219, (E)-5-cyclopropyl-3-((3-(2-(2-(4-(dimethylamino)-N-methylbut-2-enamido)acetamido)ethyl)phenyl)amino)-6-ethylpyrazine-2-carboxamide], the half-maximal inhibitory concentration (IC50) in experiment [1] is below 1 nM; in experiment [2] it was above 500 nM; in experiment [3], below 1 nM.

On to `CCc1nc(C(N)=O)c(Nc2cccc([C@@H](C)CNC(=O)CN(C)C(=O)/C=C/CN(C)C)c2)nc1C1CC1` [Compound 504, (R,E)-5-cyclopropyl-3-((3-(1-(2-(4-(dimethylamino)-N-methylbut-2-enamido)acetamido)propan-2-yl)phenyl)amino)-6-ethylpyrazine-2-carboxamide], for which the figures for the IC50 in experiment [1], in experiment [2] and in experiment [3] were below 1 nM, above 500 nM and below 1 nM, respectively.

With `CCc1nc(C(N)=O)c(Nc2cc(F)cc(CCNC(=O)CN(C)C(=O)/C=C/CN3CCC3)c2)nc1C1CC1` [Compound 516, (E)-3-((3-(2-(2-(4-(azetidin-1-yl)-N-methylbut-2-enamido)acetamido)ethyl)-5-fluorophenyl)amino)-5-cyclopropyl-6-ethylpyrazine-2-carboxamide], the IC50 was 0.201 to 0.5 nM in experiment [4], 1 to 10 nM in experiment [1], above 500 nM in experiment [2] and 1 to 10 nM in experiment [3].

With `CCCc1nc(Nc2cccc([C@@H](C)CNC(=O)CN(C)C(=O)/C=C/CN3CCC3)c2)c(C(N)=O)nc1CC` [Compound 507, (R,E)-3-((3-(1-(2-(4-(azetidin-1-yl)-N-methylbut-2-enamido)acetamido)propan-2-yl)phenyl)amino)-6-ethyl-5-propylpyrazine-2-carboxamide], the IC50 is 0.201 to 0.5 nM in experiment [4], below 1 nM in experiment [1], above 500 nM in experiment [2] and 1 to 10 nM in experiment [3].

As to `CCc1nc(C(N)=O)c(Nc2cccc(CCNC(=O)CN(C)C(=O)/C=C/CN(C)C)c2)nc1N(C)CC` [Compound 252, (E)-3-((3-(2-(2-(4-(dimethylamino)-N-methylbut-2-enamido)acetamido)ethyl)phenyl)amino)-6-ethyl-5-(ethyl (methyl)amino) pyrazine-2-carboxamide], the 50% inhibitory concentration (IC50) in experiment [4] was 0.201 to 0.5 nM; in experiment [1] it was below 1 nM; in experiment [2], above 500 nM; in experiment [3], below 1 nM.

For the compound `CCc1nc(C(N)=O)c(Nc2cccc(CCNC(=O)[C@H](C)N(C)C(=O)/C=C/CN(C)C)c2)nc1NC(C)C` [Compound 205, (S,E)-3-((3-(2-(2-(4-(dimethylamino)-N-methylbut-2-enamido)propanamido)ethyl)phenyl)amino)-6-ethyl-5-(isopropylamino)pyrazine-2-carboxamide], the IC50 in experiment [4] is 0.101 to 0.2 nM; in experiment [1], below 1 nM; in experiment [2], above 500 nM; in experiment [3], below 1 nM.
